Source: patent US20250059220A1, “SUBSTITUTED BENZOTHIOPHENE DERIVATIVES AND METHODS OF USE THEREOF” (Merck Sharp & Dohme LLC, priority 2021, published 2025)

How the values were obtained:
human PTPN1 (1-435) = human PTPN1 (1-435) (Homo sapiens (Human), UniProt P18031); experiment: Human PTPN1 Biochemical Assay; settings: DiFMUP substrate, read-out: PTP1B IC50
Method: Human PTPN1 Biochemical Assay
Test compounds were dissolved in DMSO, and 10-point serial 3-fold dilution series in DMSO were prepared in Echo Qualified 384-well Polypropylene Microplates (Labcyte, San Jose, CA) (top concentration 50 µM). […] 5 μl of assay buffer was added into the low control. The plate was incubated for 30 minutes at room temperature. Subsequently, 5 μl of 100 µM DiFMUP (6,8-difluoro-4-methylumbelliferyl phosphate) solution (prepared in assay buffer from 10 mM stock in DMSO) was added to the assay plate and incubated for 1 hour at room temperature. For detection, assay plates were read on SpectraMax Microplate Reader (Molecular Devices), with Excitation wavelength=360 nm and Emission wavelength=460 nm. […] Calculated % effects were fit using a 4-parameter algorithm, and EC50 was reported.

human PTPN2 (1-387) = human PTPN2 (1-387) (Homo sapiens (Human), UniProt P17706); experiment: Human PTPN2 Biochemical Assay; settings: DiFMUP substrate
human PTPN2 (1-387), sequence (P17706 other isoform, or with tags, fused parts or gaps): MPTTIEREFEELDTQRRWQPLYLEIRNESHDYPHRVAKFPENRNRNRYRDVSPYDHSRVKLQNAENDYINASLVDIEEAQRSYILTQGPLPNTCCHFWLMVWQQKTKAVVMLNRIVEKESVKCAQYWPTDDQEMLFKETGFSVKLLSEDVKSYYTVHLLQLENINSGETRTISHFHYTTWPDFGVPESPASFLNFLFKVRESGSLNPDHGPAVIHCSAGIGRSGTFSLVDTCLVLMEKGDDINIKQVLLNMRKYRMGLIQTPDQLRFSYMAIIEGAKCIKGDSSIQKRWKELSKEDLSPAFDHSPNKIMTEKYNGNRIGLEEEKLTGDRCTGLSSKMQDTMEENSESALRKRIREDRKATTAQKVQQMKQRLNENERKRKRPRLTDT
Method: Human PTPN2 Biochemical Assay
Test compounds were dissolved in DMSO, and 10-point serial 3-fold dilution series in DMSO were prepared in Echo Qualified 384-well Polypropylene Microplates (Labcyte, San Jose, CA) (top concentration 50 µM). Assay plates (384-well low volume black plates; Corning #3820, Corning, NY) were prepared by dispensing 50 nL of test compound, and DMSO (for high and low controls) by ECHO acoustic dispenser (Labcyte, San Jose CA). This was followed by addition of 5 μL of 0.2 nM human PTPN2 (1-387) solution (prepared in the assay buffer, 50 mM Tris pH 7.4, 150 mM NaCl, 0.01% Tween20, 0.5 mM dithiothreitol) to all wells except the low control. 5 μl of assay buffer was added into the low control, then the plate was incubated for 30 minutes at room temperature. Subsequently, 5 μl of 100 µM DiFMUP (6,8-difluoro-4-methylumbelliferyl phosphate) solution (prepared in assay buffer from 10 mM stock in DMSO) was added to the assay plate and incubated for 1 hour at room temperature. For detection, assay plates were read on SpectraMax Microplate Reader (Molecular Devices), with Excitation wavelength=360 nm and Emission wavelength=460 nm. Test compound effects were normalized to the window defined by the controls, DMSO/buffer, and DMSO/50 pM human PTPN2. Calculated % effects were fit using a 4-parameter algorithm, and EC50 was reported.

human PTPN1 (1-435), sequence (P18031 whole entry): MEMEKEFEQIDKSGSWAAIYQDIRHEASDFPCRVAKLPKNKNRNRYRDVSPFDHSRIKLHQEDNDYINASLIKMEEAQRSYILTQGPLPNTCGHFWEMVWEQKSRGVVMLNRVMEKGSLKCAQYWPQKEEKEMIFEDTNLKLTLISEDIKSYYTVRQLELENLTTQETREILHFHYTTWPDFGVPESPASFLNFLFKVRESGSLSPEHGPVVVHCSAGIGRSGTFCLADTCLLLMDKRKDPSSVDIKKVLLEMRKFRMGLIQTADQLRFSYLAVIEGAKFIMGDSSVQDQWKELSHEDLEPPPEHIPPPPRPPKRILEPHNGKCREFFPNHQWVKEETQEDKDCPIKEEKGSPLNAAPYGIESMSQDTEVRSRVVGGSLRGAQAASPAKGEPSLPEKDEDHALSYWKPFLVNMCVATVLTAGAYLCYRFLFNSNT

IC50 (human PTPN1 (1-435)) [nM] | IC50 (human PTPN2 (1-387)) [nM] | Compound
1620 | 1880 | O=C(NC(c1cccnc1)C(F)(F)F)c1ccc2sc(C(F)(F)P(=O)(O)O)c(Br)c2c1 (single isomer, unassigned) [Compound 222a, (S or R)-((3-bromo-5-((2,2,2-trifluoro-1-(pyridin-3-yl)ethyl)carbamoyl)benzo[b]thiophen-2-yl)difluoromethyl)phosphonic acid]
707 | 771 | O=C(NC(c1cccnc1)C(F)(F)F)c1ccc2sc(C(F)(F)P(=O)(O)O)c(Br)c2c1 (single isomer, unassigned) [Compound 222b, (R or S)-((3-bromo-5-((2,2,2-trifluoro-1-(pyridin-3-yl)ethyl)carbamoyl)benzo[b]thiophen-2-yl)difluoromethyl)phosphonic acid]
2410 | 2200 | CC(NC(=O)c1ccc2sc(C(F)(F)P(=O)(O)O)c(Br)c2c1)c1cccnn1 (single isomer, unassigned) [Compound 225, (R or S)-((3-bromo-5-((1-(pyridazin-3-yl)ethyl)carbamoyl)benzo[b]thiophen-2-yl)difluoromethyl)phosphonic acid]
18 | 26.9 | NC(=O)c1cc(OCCC2CCCS2(=O)=O)c2sc(C(F)(F)P(=O)(O)O)c(Br)c2c1 (single isomer, unassigned) [Compound 371]
18.2 | 19.7 | NC(=O)c1cc(OCCC2CCCS2(=O)=O)c2sc(C(F)(F)P(=O)(O)O)c(Br)c2c1 (single isomer, unassigned) [Compound 372]
56.9 | 48 | CC1CCS(=O)(=O)C1CCOc1cc(C(N)=O)cc2c(Br)c(C(F)(F)P(=O)(O)O)sc12 (single isomer, unassigned) [Compound 393]
26.1 | 34.2 | CC1CCS(=O)(=O)C1CCOc1cc(C(N)=O)cc2c(Br)c(C(F)(F)P(=O)(O)O)sc12 (single isomer, unassigned) [Compound 394]
21.2 | 17.3 | CC1CCS(=O)(=O)C1CCOc1cc(C(N)=O)cc2c(Br)c(C(F)(F)P(=O)(O)O)sc12 (single isomer, unassigned) [Compound 395]
21.1 | 22.5 | NC(=O)c1cc(OCCC2CCNS2(=O)=O)c2sc(C(F)(F)P(=O)(O)O)c(Br)c2c1 (single isomer, unassigned) [Compound 461, (R or S)-((3-bromo-5-carbamoyl-7-(2-(1,1-dioxidoisothiazolidin-5-yl)ethoxy)benzo[b]thiophen-2-yl)difluoromethyl)phosphonic acid]
12.5 | 12.1 | NC(=O)c1cc(OCCC2CCNS2(=O)=O)c2sc(C(F)(F)P(=O)(O)O)c(Br)c2c1 (single isomer, unassigned) [Compound 462]
1610 | 3010 | O=C(Nc1ccccc1)c1ccc2sc(C(F)(F)P(=O)(O)O)c(Br)c2c1 [Compound 1, ((3-bromo-5-(phenylcarbamoyl)benzo[b]thiophen-2-yl)difluoromethyl)phosphonic acid]
3230 | 5320 | NC(=O)c1ccc2sc(C(F)(F)P(=O)(O)O)c(Br)c2c1 [Compound 2]
1130 | 1020 | N#Cc1c(C(F)(F)P(=O)(O)O)sc2ccc(C(=O)Nc3ccccc3)cc12 [Compound 3, ((3-cyano-5-(phenylcarbamoyl)benzo[b]thiophen-2-yl)difluoromethyl)phosphonic acid]
764 | 1330 | COCCN(CCOC)C(=O)c1ccc2sc(C(F)(F)P(=O)(O)O)c(Br)c2c1 [Compound 7, ((5-(bis(2-methoxyethyl)carbamoyl)-3-bromobenzo[b]thiophen-2-yl)difluoromethyl)phosphonic acid]
3270 | 3940 | N#Cc1cccc2c(Br)c(C(F)(F)P(=O)(O)O)sc12 [Compound 8, ((3-bromo-7-cyanobenzo[b]thiophen-2-yl)difluoromethyl)phosphonic acid]
2200 | 2130 | O=C(Nc1ccccc1)c1ccc2sc(C(F)(F)P(=O)(O)O)c(C(F)(F)F)c2c1 [Compound 9, (difluoro(5-(phenylcarbamoyl)-3-(trifluoromethyl)benzo[b]thiophen-2-yl)methyl)phosphonic acid]
2160 | 3050 | O=C(NCc1cccnc1)c1ccc2sc(C(F)(F)P(=O)(O)O)c(Br)c2c1 [Compound 11]
 | 1460 | O=C(NCc1cccnn1)c1ccc2sc(C(F)(F)P(=O)(O)O)c(Br)c2c1 [Compound 31]
 | 133 | CC(C)(O)CCOc1cc(C(=O)NCc2cccnn2)cc2c(Br)c(C(F)(F)P(=O)(O)O)sc12 [Compound 169]
 | 1170 | CNC(=O)COc1cc(C(N)=O)cc2c(Br)c(C(F)(F)P(=O)(O)O)sc12 [Compound 246]
 | 241 | NC(=O)c1cc(CCCCC(F)(F)F)c2sc(C(F)(F)P(=O)(O)O)c(Br)c2c1 [Compound 296, ((3-bromo-5-carbamoyl-7-(5,5,5-trifluoropentyl)benzo[b]thiophen-2-yl)difluoromethyl)phosphonic acid]
 | 335 | CCCCSc1cc(C(N)=O)cc2c(Br)c(C(F)(F)P(=O)(O)O)sc12 [Compound 309]

Compound | IC50 (human PTPN1 (1-435)) [nM] | IC50 (human PTPN2 (1-387)) [nM]
NC(c1cc(OCCCC(F)(F)F)c2sc(C(F)(F)P(=O)(O)O)c(Br)c2c1)C(F)(F)F (single isomer, unassigned) [Compound 261, (R or S)-((5-(1-amino-2,2,2-trifluoroethyl)-3-bromo-7-(4,4,4-trifluorobutoxy)benzo[b]thiophen-2-yl)difluoromethyl)phosphonic acid] | 2020 | 5880
CS(=N)(=O)Cc1cc(OCCCC(F)(F)F)c2sc(C(F)(F)P(=O)(O)O)c(Br)c2c1 (single isomer, unassigned) [Compound 411, ((3-bromo-5-(((R or S)-methylsulfonimidoyl)methyl)-7-(4,4,4-trifluorobutoxy)benzo[b]thiophen-2-yl)difluoromethyl)phosphonic acid] | 299 | 251
N#Cc1c(C(F)(F)P(=O)(O)O)sc2ccc(C(=O)NC3CC(F)(F)C3)cc12 [Compound 4] | 1440 | 1200
COc1cccc(NC(=O)c2ccc3sc(C(F)(F)P(=O)(O)O)c(C#N)c3c2)c1 [Compound 5] | 1130 | 896
N#CCCNC(=O)c1ccc2sc(C(F)(F)P(=O)(O)O)c(C#N)c2c1 [Compound 6] | 6050 | 4640
O=C(NCc1cccnn1)c1cc(OCCCC(F)(F)F)c2sc(C(F)(F)P(=O)(O)O)c(Br)c2c1 [Compound 10, ((3-bromo-5-((pyridazin-3-ylmethyl)carbamoyl)-7-(4,4,4-trifluorobutoxy)benzo[b]thiophen-2-yl)difluoromethyl)phosphonic acid] | 4.61 | 5.79
Cc1nnc(-c2cc(OCCCC(F)(F)F)c3sc(C(F)(F)P(=O)(O)O)c(Br)c3c2)[nH]1 [Compound 417, ((3-bromo-5-(5-methyl-4H-1,2,4-triazol-3-yl)-7-(4,4,4-trifluorobutoxy)benzo[b]thiophen-2-yl)difluoromethyl)phosphonic acid] |  | 9.08
O=P(O)(O)C(F)(F)c1sc2c(OCCCC(F)(F)F)cc(O)cc2c1Br [Compound 419, ((3-bromo-5-hydroxy-7-(4,4,4-trifluorobutoxy)benzo[b]thiophen-2-yl)difluoromethyl)phosphonic acid] |  | 345
